target: GABA-B receptor (Rattus norvegicus (Rat), UniProt O88871+Q9Z0U4); assay: [35S]GTPgS Binding Assay (rat brain cortex membranes, native receptor); type: biochemical; conditions: rat cortical membranes; in the presence of 1 μM GABA (EC25); basal binding 0%, maximal binding (1 mM GABA) 100%
Experimental: Preparation of Rat Brain Membranes for Native Receptor Assays
Membranes from rat brain cortex were prepared as described in detail by Olpe et al. and stored at concentrations of 1.66 mg/mL protein at −80° C. until required. (Olpe, H.-R, et al. Eur J Pharmacol 1990; 187: 27-38).
[^35S]GTPgS Binding Assay
The samples were incubated at room temperature for 60 minutes on a shaker. The incubation was stopped by rapid vacuum filtration over glass-fiber filter plates (UniFilter-96 well, GF/B membrane plates, PerkinElmer) using a 96-well plate harvester (TOMTEK© Harvester). The UniFilter plate was washed five times with ice-cold wash buffer (50 mM Tris-HCl buffer, pH 7.7, 10 mM MgCl2, and 100 mM NaCl. After filtration the plate was dried for 90 minutes at 55° C. The plates were closed on the bottom with black sealing membranes, and liquid scintillation cocktail (35 μL, Betaplate Scint, PerkinElmer) was added to each well. After sealing the top of the plate, an additional incubation step of 90 minutes at room temperature followed before measuring the plate. The amount of membrane-bound [^35S]GTPgS was measured using a 96-well plate reader (Microbeta®, PerkinElmer). Nonspecific binding was measured in the presence of unlabeled 10 μM of GTPgS (Millipore) and without GABA. Basal binding was measured in the absence of 1 μM GABA, and maximal binding was measured in the presence of GABA using 1 mM GABA concentrations.
Data analysis. The concentration-response curves of compounds of the present disclosure in the presence of EC25 of GABA-B receptor agonist were generated using the GraphPad Prism® program (GraphPad Software, San Diego, Calif.). Data was normalized using basal binding as 0% and maximal binding as 100%. The curves were fitted by nonlinear regression allowing determination of EC50 values from sigmoidal dose-response curves. Each curve was performed using triplicate sample per date point and 10 concentrations.

Chain of GABA-B receptor (Q9Z0U4 17-960): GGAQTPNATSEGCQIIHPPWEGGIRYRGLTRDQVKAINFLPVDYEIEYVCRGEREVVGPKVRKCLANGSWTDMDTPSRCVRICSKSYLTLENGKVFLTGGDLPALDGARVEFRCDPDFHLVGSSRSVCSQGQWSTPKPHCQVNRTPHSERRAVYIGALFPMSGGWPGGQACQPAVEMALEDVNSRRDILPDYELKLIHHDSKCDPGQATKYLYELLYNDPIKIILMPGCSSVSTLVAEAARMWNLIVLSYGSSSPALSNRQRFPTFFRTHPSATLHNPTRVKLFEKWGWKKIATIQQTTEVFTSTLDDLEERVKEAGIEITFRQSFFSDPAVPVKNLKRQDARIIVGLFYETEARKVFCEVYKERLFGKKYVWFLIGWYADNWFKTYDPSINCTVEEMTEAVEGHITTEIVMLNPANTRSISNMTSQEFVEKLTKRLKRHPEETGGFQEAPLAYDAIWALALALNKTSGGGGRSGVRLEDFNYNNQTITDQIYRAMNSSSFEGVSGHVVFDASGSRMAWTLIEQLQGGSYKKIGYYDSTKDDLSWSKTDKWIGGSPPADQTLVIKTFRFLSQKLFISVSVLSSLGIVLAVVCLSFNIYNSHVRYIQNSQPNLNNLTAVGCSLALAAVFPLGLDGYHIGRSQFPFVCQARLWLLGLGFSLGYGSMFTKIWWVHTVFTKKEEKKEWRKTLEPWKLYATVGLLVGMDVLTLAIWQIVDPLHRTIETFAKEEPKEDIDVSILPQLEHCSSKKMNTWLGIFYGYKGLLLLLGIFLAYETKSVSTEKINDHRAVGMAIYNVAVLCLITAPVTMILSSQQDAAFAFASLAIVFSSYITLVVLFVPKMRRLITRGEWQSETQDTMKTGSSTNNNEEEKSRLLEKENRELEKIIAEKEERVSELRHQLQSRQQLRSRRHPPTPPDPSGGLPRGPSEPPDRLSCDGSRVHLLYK
Chain of GABA-B receptor (O88871 41-940): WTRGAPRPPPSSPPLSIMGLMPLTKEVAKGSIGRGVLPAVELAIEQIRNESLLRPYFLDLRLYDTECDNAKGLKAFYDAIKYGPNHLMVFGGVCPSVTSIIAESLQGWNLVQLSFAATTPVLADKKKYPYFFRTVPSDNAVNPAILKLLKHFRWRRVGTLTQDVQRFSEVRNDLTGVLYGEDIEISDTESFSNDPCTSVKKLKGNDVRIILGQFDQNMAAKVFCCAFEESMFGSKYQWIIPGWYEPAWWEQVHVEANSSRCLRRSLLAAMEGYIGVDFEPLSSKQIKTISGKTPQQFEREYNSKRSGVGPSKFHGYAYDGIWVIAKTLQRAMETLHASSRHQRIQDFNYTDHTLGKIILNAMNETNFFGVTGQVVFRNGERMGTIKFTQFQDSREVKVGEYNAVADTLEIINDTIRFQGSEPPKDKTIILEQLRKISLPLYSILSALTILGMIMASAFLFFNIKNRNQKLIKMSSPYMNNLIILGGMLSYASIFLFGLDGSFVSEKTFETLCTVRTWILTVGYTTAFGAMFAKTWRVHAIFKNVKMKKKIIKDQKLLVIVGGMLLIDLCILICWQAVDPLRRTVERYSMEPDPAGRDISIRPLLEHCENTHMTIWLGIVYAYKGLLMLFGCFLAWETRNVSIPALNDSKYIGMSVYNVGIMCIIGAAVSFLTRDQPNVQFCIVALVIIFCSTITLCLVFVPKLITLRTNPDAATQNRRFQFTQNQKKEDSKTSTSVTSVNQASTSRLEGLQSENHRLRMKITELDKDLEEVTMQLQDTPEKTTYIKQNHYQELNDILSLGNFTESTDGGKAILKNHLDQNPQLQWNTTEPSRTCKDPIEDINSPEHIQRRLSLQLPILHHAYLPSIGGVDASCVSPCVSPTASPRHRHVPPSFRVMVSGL

EC50 | Compound
2790 nM | COc1ccc(Cn2nc(-c3ccc(F)cc3)c3onc(C)c3c2=O)cc1C(F)(F)F [Example 66, 7-(4-fluorophenyl)-5-[4-methoxy-3-(trifluoromethyl)benzyl]-3-methyl[1,2]oxazolo[4,5-d]pyridazin-4(5H)-one]
450 nM | COc1ccc(C(=O)N2CCCC2)cc1-c1nn(C(C)c2ccc(Cl)cc2)c(=O)c2c(C)noc12 (stereo not shown) [Example 98, 5-[1-(4-chlorophenyl)ethyl]-7-[2-methoxy-5-(pyrrolidin-1-ylcarbonyl)phenyl]-3-methyl[1,2]oxazolo[4,5-d]pyridazin-4(5H)-one]
1850 nM | Cc1noc2c(-c3cccc(N)c3C(N)=O)nn(C(C)c3ccc(Cl)cc3)c(=O)c12 (stereo not shown) [Example 65, 2-amino-6-{5-[1-(4-chlorophenyl)ethyl]-3-methyl-4-oxo-4,5-dihydro[1,2]oxazxazolo[4,5-d]pyridazin-7-yl}benzamide]
23 nM | CNC(=O)c1ccc(OC)c(-c2nn([C@@H](C)c3ccc(Cl)cc3)c(=O)c3c(C)noc23)c1 [Example 82, 3-{5-[(1S)-1-(4-chlorophenyl)ethyl]-3-methyl-4-oxo-4,5-dihydro[1,2]oxazolo[4,5-d]pyridazin-7-yl}-4-methoxy-N-methylbenzamide]
2130 nM | Cc1noc2c(-c3ccccc3N)nn(C(C)c3ccc(Cl)cc3)c(=O)c12 (stereo not shown) [Example 14, 7-(2-aminophenyl)-5-[1-(4-chlorophenyl)ethyl]-3-methyl[1,2]oxazolo[4,5-d]pyridazin-4(5H)-one]
51 nM | COc1ccc(NC(C)=O)cc1-c1nn([C@@H](C)c2ccc(Cl)cc2)c(=O)c2c(C3CC3)noc12 [Example 1, N-(3-{5-[(1S)-1-(4-chlorophenyl)ethyl]-3-cyclopropyl-4-oxo-4,5-dihydro[1,2]oxazolo[4,5-d]pyridazin-7-yl}-4-methoxyphenyl)acetamide]
17 nM | COc1ccc(C(N)=O)cc1-c1nn(C(C)c2ccc(Cl)cc2)c(=O)c2c(C)noc12 (stereo not shown) [Example 59]
600 nM | Cc1noc2c(-c3cccnc3Cl)nn(C(C)c3ccc(Cl)cc3)c(=O)c12 (stereo not shown) [Example 7, 5-[1-(4-chlorophenyl)ethyl]-7-(2-chloropyridin-3-yl)-3-methyl[1,2]oxazolo[4,5-d]pyridazin-4(5H)-one]
644 nM | COc1ccc(NC(C)=O)cc1-c1nn(Cc2ccc(C(F)(F)F)cc2)c(=O)c2c(C)noc12 [Example 64, N-(4-methoxy-3-{3-methyl-4-oxo-5-[4-(trifluoromethyl)benzyl]-4,5-dihydro[1,2]oxazolo[4,5-d]pyridazin-7-yl}phenyl)acetamide]
582 nM | COc1ccc(OC)c(-c2nn([C@H](C)c3ccc(C(F)(F)F)cc3)c(=O)c3c(C)noc23)c1 [Example 125, 7-(2,5-dimethoxyphenyl)-3-methyl-5-{(1R)-1-[4-(trifluoromethyl)phenyl]ethyl}[1,2]oxazolo[4,5-d]pyridazin-4(5H)-one]
1850 nM | Cc1noc2c(-c3cccc(NS(C)(=O)=O)c3)nn(C(C)c3ccc(Cl)cc3)c(=O)c12 (stereo not shown) [Example 24, N-(3-{5-[1-(4-chlorophenyl)ethyl]-3-methyl-4-oxo-4,5-dihydro[1,2]oxazolo[4,5-d]pyridazin-7-yl}phenyl)methanesulfonamide]
3410 nM | 7-(4-fluorophenyl)-3-methyl-5-(pyridin-4-ylmethyl)[1,2]oxazolo[4,5-d]pyridazin-4(5H)-one [Example 74]
105 nM | COc1ccc(NC(C)=O)cc1-c1nn(C(C)c2ccc(Cl)cc2)c(=O)c2c(C)noc12 (stereo not shown) [Example 39, N-(3-{5-[1-(4-chlorophenyl)ethy]-3-methyl-4-oxo-4,5-dihydro[1,2]oxazolo[4,5-d]pyridazin-7-yl}-4-methoxyphenyl)acetamide]
1060 nM | COc1ccc(OC)c(-c2nn(CCc3ccc(Cl)cc3)c(=O)c3c(C)noc23)c1 [Example 10, 5-[2-(4-chlorophenyl)ethyl]-7-(2,5-dimethoxyphenyl)-3-methyl[1,2]oxazolo[4,5-d]pyridazin-4(5H)-one]
1030 nM | COc1ccc(-c2nn(Cc3ccc(Cl)cc3)c(=O)c3c(C)noc23)c(OC)c1 [Example 87, 5-(4-chlorobenzyl)-7-(2,4-dimethoxyphenyl)-3-methyl[1,2]oxazolo[4,5-d]pyridazin-4(5H)-one]
667 nM | Cc1noc2c(-c3ccccc3O)nn(C(C)c3ccc(Cl)cc3)c(=O)c12 (stereo not shown) [Example 100, 5-[1-(4-chlorophenyl)ethyl]-7-(2-hydroxyphenyl)-3-methyl[1,2]oxazolo[4,5-d]pyridazin-4(5H)-one]
283 nM | CC(=O)Nc1ccc(OC(F)(F)F)c(-c2nn(C(C)c3ccc(Cl)cc3)c(=O)c3c(C)noc23)c1 (stereo not shown) [Example 49, N-[3-{5-[1-(4-chlorophenyl)ethyl]-3-methyl-4-oxo-4,5-dihydro[1,2]oxazolo[4,5-d]pyridazin-7-yl}-4-(trifluoromethoxy)phenyl]acetamide]
1660 nM | Cc1noc2c(-c3cc(F)nc(F)c3)nn(C(C)c3ccc(Cl)cc3)c(=O)c12 (stereo not shown) [Example 4, 5-[1-(4-chlorophenyl)ethyl]-7-(2,6-difluoropyridin-4-yl)-3-methyl[1,2]oxazolo[4,5-d]pyridazin-4(5H)-one]

Continued, compound first:

Compound | EC50
Cc1noc2c(-c3cccnc3)nn(C(C)c3ccc(Cl)cc3)c(=O)c12 (stereo not shown) [Example 109, 5-[1-(4-chlorophenyl)ethyl]-3-methyl-7-(pyridin-3-yl)[1,2]oxazolo[4,5-d]pyridazin-4(5H)-one] | 1210 nM
COc1ccc(F)cc1-c1nn(C(C)c2ccc(Cl)cc2)c(=O)c2c(C)noc12 (stereo not shown) [Example 63, 5-[1-(4-chlorophenyl)ethyl]-7-(5-fluoro-2-methoxyphenyl)-3-methyl[1,2]oxazolo[4,5-d]pyridazin-4(5H)-one] | 491 nM
CCc1noc2c(-c3cc(OC)ccc3OC)nn(Cc3ccc(Cl)cc3)c(=O)c12 [Example 36, 5-(4-chlorobenzyl)-7-(2,5-dimethoxyphenyl)-3-ethyl[1,2]oxazolo[4,5-d]pyridazin-4(5H)-one] | 895 nM
Cc1noc2c(-c3ccccc3)nn(Cc3ccc(Cl)cc3)c(=O)c12 [Example 122, 5-(4-chlorobenzyl)-3-methyl-7-phenyl[1,2]oxazolo[4,5-d]pyridazin-4(5H)-one] | 3800 nM
Cc1noc2c(-c3ccc(F)cc3)nn(Cc3ccc(C(F)(F)F)cc3)c(=O)c12 [Example 19, 7-(4-fluorophenyl)-3-methyl-5-[4-(trifluoromethyl)benzyl][1,2]oxazolo[4,5-d]pyridazin-4(5H)-one] | 1580 nM
Cc1noc2c(-c3cccc(F)c3)nn(Cc3ccc(Cl)cc3)c(=O)c12 [Example 23, 5-(4-chlorobenzyl)-7-(3-fluorophenyl)-3-methyl[1,2]oxazolo[4,5-d]pyridazin-4(5H)-one] | > 10000 nM
COc1ccc(NC(C)=O)cc1-c1nn([C@H](C)c2ccc(C(F)(F)F)cc2)c(=O)c2c(C)noc12 [Example 105, N-[4-methoxy-3-(3-methyl-4-oxo-5-{(1R)-1-[4-(trifluoromethyl)phenyl]ethyl}-4,5-dihydro[1,2]oxazolo[4,5-d]pyridazin-7-yl)phenyl]acetamide] | 33 nM
COc1ccc(-c2nn(Cc3cc(C(F)(F)F)ccc3F)c(=O)c3c(C)noc23)c(OC)c1 [Example 48, 7-(2,4-dimethoxyphenyl)-5-[2-fluoro-5-(trifluoromethyl)benzyl]-3-methyl[1,2]oxazolo[4,5-d]pyridazin-4(5H)-one] | 1550 nM
CC(=O)Nc1cc(-c2nn(Cc3ccc(F)c(C(F)(F)F)c3)c(=O)c3c(C)noc23)ccc1F [Example 61, N-(2-fluoro-5-{5-[4-fluoro-3-(trifluoromethyl)benzyl]-3-methyl-4-oxo-4,5-dihydro[1,2]oxazolo[4,5-d]pyridazin-7-yl}phenyl)acetamide] | > 10000 nM
COc1ccc(NC(C)=O)cc1-c1nn([C@@H](C)c2ccc(Cl)cc2)c(=O)c2c(C)noc12 [Example 117, N-(3-{5-[(1S)-1-(4-chlorophenyl)ethyl]-3-methyl-4-oxo-4,5-dihydro[1,2]oxazolo[4,5-d]pyridazin-7-yl}-4-methoxyphenyl)acetamide] | 43 nM
CCNC(=O)c1ccc(OC)c(-c2nn(C(C)c3ccc(Cl)cc3)c(=O)c3c(C)noc23)c1 (stereo not shown) [Example 131] | 453 nM
CCCc1noc2c(-c3cccc(NC(C)=O)c3)nn(Cc3ccc(Cl)cc3)c(=O)c12 [Example 91, N-{3-[5-(4-chlorobenzyl)-4-oxo-3-propyl-4,5-dihydro[1,2]oxazolo[4,5-d]pyridazin-7-yl]phenyl}acetamide] | 2120 nM
COc1ccc(NS(C)(=O)=O)cc1-c1nn(C(C)c2ccc(Cl)cc2)c(=O)c2c(C)noc12 (stereo not shown) [Example 55, N-(3-{5-[1-(4-chlorophenyl)ethyl]-3-methyl-4-oxo-4,5-dihydro[1,2]oxazolo[4,5-d]pyridazin-7-yl}-4-methoxyphenyl)methanesulfonamide] | 80 nM

— patent US10556914B2, “Substituted isoxazolopyridazinones and isothiazolopyridazinones and methods of use” (AbbVie Inc., priority 2015, dated 2020)
